Molecular target: T1, papain (Carica papaya, UniProt P00784)
T1 sequence (P00784 134-345): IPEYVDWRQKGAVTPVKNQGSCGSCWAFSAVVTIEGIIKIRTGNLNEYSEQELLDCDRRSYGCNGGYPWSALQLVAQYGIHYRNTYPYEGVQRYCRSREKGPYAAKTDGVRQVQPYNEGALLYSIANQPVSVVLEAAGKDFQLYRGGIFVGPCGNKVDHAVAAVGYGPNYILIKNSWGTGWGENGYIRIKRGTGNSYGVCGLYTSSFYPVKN
Test: Anti-papain activity (casein hydrolysis, Lowry-Folin method)
Assay type: biochemical
Conditions: not given
Procedure: (§1) A mixture of a test compound of the present invention, papain (0.015 units) and a citrate buffer solution (20 mM, pH=6.2,1 ml) containing EDTA (0.88 mg) was preincubated at 30° C. for 5 minutes and a substrate solution (1 ml) was added to start the reaction. The substrate was a 1% solution of casein in the citrate buffer. The reaction was performed at 30° C. for 20 minutes. The reaction was quenched by adding 6.5% trichloroacetic acid (3 ml) to the reaction solution. The amount of casein that had been hydrolyzed enzymatically in the trichloroacetic acid soluble fraction was measured by the Lowry-Folin method and the inhibitory activity of the test compound was determined by comparison with the control solution.
as §1, with “pH=6.2, 1” for “pH=6.2,1”

| SMILES | IC50 [nM] |
| --- | --- |
| CCCC[C@@H](C=O)NC(=O)[C@H](CC(C)C)NP(=S)(c1ccccc1)c1ccccc1 [Example 14, N-diphenylphosphonothioyl-L-leucyl-L-norleucinal] | 170 |

Same assay, conditions: Table 5 (Example 29); pH 6.2, 30° C., 20 minutes, casein; read-out: Inhibitory activity toward papain, IC50

| SMILES | IC50 [nM] |
| --- | --- |
| CCCC[C@@H](C=O)NC(=O)[C@H](CC(C)C)NC(=O)OCc1ccc(Cl)cc1 [Example 6, N-(p-chlorobenzyloxycarbonyl)-L-leucyl-L-norleucinal] | 58 |
| CCCC[C@@H](C=O)NC(=O)[C@H](CC(C)C)NC(=O)OCc1ccc(OC)cc1 [Example 7, N-(p-methoxybenzyloxycarbonyl)-L-leucyl-L-norleucinal] | 250 |
| CCCC[C@@H](C=O)NC(=O)[C@H](CC(C)C)NC(=O)OCc1ccc([N+](=O)[O-])cc1 [Example 8, N-(p-nitrobenzyloxycarbonyl)-L-leucyl-L-norleucinal] | 31 |
| CCCC[C@@H](C=O)NC(=O)[C@H](CC(C)C)NC(=O)CC(C)C [Example 3, N-isovaleryl-L-leucyl-L-norleucinal] | 120 |
| CCCC[C@@H](C=O)NC(=O)[C@H](CC(C)C)NC(=O)OCC(Cl)(Cl)Cl [Example 10, N-(2,2,2-trichloroethyloxycarbonyl)-L-leucyl-L-norleucinal] | 260 |
| CCCC[C@@H](C=O)NC(=O)[C@H](CC(C)C)NC(=O)OCc1ccccc1Cl [Example 9, N-(o-chlorobenzyloxycarbonyl)-L-leucyl-L-norleucinal] | 160 |
| CCCC[C@@H](C=O)NC(=O)[C@H](CC(C)C)NS(=O)(=O)c1ccc(C)cc1 [Example 12, N-(p-toluenesulfonyl)-L-leucyl-L-norleucinal] | 180 |

Molecular target: T2, calpain I (Homo sapiens, UniProt P07384)
T2 sequence (P07384 1-714): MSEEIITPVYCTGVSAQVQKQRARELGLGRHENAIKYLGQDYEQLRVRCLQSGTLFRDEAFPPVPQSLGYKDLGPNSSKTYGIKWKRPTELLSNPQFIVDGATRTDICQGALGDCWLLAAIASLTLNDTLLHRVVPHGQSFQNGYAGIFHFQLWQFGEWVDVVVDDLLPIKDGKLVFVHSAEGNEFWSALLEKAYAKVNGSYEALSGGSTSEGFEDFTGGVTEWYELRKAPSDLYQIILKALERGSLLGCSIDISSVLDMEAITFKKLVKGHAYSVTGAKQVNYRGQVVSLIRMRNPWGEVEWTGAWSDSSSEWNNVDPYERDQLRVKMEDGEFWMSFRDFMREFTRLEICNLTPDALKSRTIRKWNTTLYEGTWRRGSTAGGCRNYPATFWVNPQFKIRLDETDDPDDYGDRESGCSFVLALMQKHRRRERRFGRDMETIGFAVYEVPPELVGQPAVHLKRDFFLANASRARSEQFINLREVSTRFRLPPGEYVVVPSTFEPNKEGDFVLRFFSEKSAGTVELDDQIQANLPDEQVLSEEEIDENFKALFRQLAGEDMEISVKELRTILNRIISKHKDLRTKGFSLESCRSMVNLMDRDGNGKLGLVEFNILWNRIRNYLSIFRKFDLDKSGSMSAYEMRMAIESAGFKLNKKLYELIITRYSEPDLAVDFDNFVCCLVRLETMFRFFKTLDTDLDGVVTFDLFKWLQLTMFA
T2 sequence (P04632 1-268 partner): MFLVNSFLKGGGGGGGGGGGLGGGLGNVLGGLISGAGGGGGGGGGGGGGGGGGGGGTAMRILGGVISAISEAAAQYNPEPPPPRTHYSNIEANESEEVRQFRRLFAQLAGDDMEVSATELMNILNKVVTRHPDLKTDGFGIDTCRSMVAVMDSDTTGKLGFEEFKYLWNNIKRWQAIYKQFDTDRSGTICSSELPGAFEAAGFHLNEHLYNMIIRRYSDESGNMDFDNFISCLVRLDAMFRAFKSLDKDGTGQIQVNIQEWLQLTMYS
Test: Anti-calpain activity, calpain I (casein hydrolysis, Ross-Schatz method)
Assay type: biochemical
Conditions: not given

| SMILES | IC50 [nM] |
| --- | --- |
| CCCC[C@@H](C=O)NC(=O)[C@H](CC(C)C)NP(=S)(c1ccccc1)c1ccccc1 [Example 14, N-diphenylphosphonothioyl-L-leucyl-L-norleucinal] | 90 |

Same assay, conditions: Table 6 (Example 29); pH 7.5, 30° C., 30 minutes, casein; read-out: Inhibitory activity toward calpain I, IC50

| SMILES | IC50 [nM] |
| --- | --- |
| CCCC[C@@H](C=O)NC(=O)[C@H](CC(C)C)NC(=O)OCc1ccc(Cl)cc1 [Example 6, N-(p-chlorobenzyloxycarbonyl)-L-leucyl-L-norleucinal] | 87 |
| CCCC[C@@H](C=O)NC(=O)[C@H](CC(C)C)NC(=O)OCc1ccc(OC)cc1 [Example 7, N-(p-methoxybenzyloxycarbonyl)-L-leucyl-L-norleucinal] | 100 |
| CCCC[C@@H](C=O)NC(=O)[C@H](CC(C)C)NC(=O)OCc1ccc([N+](=O)[O-])cc1 [Example 8, N-(p-nitrobenzyloxycarbonyl)-L-leucyl-L-norleucinal] | 92 |
| CCCC[C@@H](C=O)NC(=O)[C@H](CC(C)C)NC(=O)OC(C)(C)C [Example 4, N-(t-butyloxycarbonyl)-L-leucyl-L-norleucinal] | 30 |
| CCCC[C@@H](C=O)NC(=O)[C@H](CC(C)C)NC(=O)CC(C)C [Example 3, N-isovaleryl-L-leucyl-L-norleucinal] | 100 |
| CCCC[C@@H](C=O)NC(=O)[C@H](CC(C)C)NC(=O)OCC(Cl)(Cl)Cl [Example 10, N-(2,2,2-trichloroethyloxycarbonyl)-L-leucyl-L-norleucinal] | 96 |
| CCCC[C@@H](C=O)NC(=O)[C@H](CC(C)C)NC(=O)OCc1ccccc1Cl [Example 9, N-(o-chlorobenzyloxycarbonyl)-L-leucyl-L-norleucinal] | 110 |
| CCCC[C@@H](C=O)NC(=O)[C@H](CC(C)C)NS(=O)(=O)c1ccc(C)cc1 [Example 12, N-(p-toluenesulfonyl)-L-leucyl-L-norleucinal] | 110 |

Molecular target: cathepsin B (Bos taurus, UniProt P07688)
Test: Anti-cathepsin activity (cathepsin B, benzyloxycarbonyl-L-lysine-p-nitrophenyl ester substrate)
Assay type: biochemical, bovine
Conditions: not given
Procedure: A mixture of a test compound of the present invention and an acetate buffer solution (25 mM, pH=5.1, with 1 mM EDTA, 3.15 ml) containing a substrate (benzyloxycarbonyl-L-lysine-p-nitrophenyl ester, 0.114 mg) was preincubated at 30° C. for 1 minute. To the mixture, a solution (0.05 ml) of cathepsin B (derived from bovine spleen; product of Sigma; 0.05 units) in the acetate buffer was added to start the reaction. Immediately after the start of reaction, the change in absorbance at 326 nm was measured and the inhibitory activity of the test compound was determined by comparison with the control solution.

| SMILES | IC50 [nM] |
| --- | --- |
| CCCC[C@@H](C=O)NC(=O)[C@H](CC(C)C)NP(=S)(c1ccccc1)c1ccccc1 [Example 14, N-diphenylphosphonothioyl-L-leucyl-L-norleucinal] | 79 |

Same assay, conditions: Table 8 (Example 29); pH 5.1, 30° C., from bovine spleen; read-out: Inhibitory activity toward cathepsin B, IC50

| SMILES | IC50 [nM] |
| --- | --- |
| CCCC[C@@H](C=O)NC(=O)[C@H](CC(C)C)NC(=O)OCc1ccc(Cl)cc1 [Example 6, N-(p-chlorobenzyloxycarbonyl)-L-leucyl-L-norleucinal] | 70 |
| CCCC[C@@H](C=O)NC(=O)[C@H](CC(C)C)NC(=O)OCc1ccc(OC)cc1 [Example 7, N-(p-methoxybenzyloxycarbonyl)-L-leucyl-L-norleucinal] | 150 |
| CCCC[C@@H](C=O)NC(=O)[C@H](CC(C)C)NC(=O)OCc1ccc([N+](=O)[O-])cc1 [Example 8, N-(p-nitrobenzyloxycarbonyl)-L-leucyl-L-norleucinal] | 99 |
| CCCC[C@@H](C=O)NC(=O)[C@H](CC(C)C)NC(=O)OC(C)(C)C [Example 4, N-(t-butyloxycarbonyl)-L-leucyl-L-norleucinal] | 58 |
| CCCC[C@@H](C=O)NC(=O)[C@H](CC(C)C)NC(=O)CC(C)C [Example 3, N-isovaleryl-L-leucyl-L-norleucinal] | 510 |
| CCCC[C@@H](C=O)NC(=O)[C@H](CC(C)C)NC(=O)OCC(Cl)(Cl)Cl [Example 10, N-(2,2,2-trichloroethyloxycarbonyl)-L-leucyl-L-norleucinal] | 330 |
| CCCC[C@@H](C=O)NC(=O)[C@H](CC(C)C)NC(=O)OCc1ccccc1Cl [Example 9, N-(o-chlorobenzyloxycarbonyl)-L-leucyl-L-norleucinal] | 140 |
| CCCC[C@@H](C=O)NC(=O)[C@H](CC(C)C)NS(=O)(=O)c1ccc(C)cc1 [Example 12, N-(p-toluenesulfonyl)-L-leucyl-L-norleucinal] | 1200 |

Molecular target: T3, calpain II (Homo sapiens, UniProt P17655)
T3 sequence (P17655 1-700): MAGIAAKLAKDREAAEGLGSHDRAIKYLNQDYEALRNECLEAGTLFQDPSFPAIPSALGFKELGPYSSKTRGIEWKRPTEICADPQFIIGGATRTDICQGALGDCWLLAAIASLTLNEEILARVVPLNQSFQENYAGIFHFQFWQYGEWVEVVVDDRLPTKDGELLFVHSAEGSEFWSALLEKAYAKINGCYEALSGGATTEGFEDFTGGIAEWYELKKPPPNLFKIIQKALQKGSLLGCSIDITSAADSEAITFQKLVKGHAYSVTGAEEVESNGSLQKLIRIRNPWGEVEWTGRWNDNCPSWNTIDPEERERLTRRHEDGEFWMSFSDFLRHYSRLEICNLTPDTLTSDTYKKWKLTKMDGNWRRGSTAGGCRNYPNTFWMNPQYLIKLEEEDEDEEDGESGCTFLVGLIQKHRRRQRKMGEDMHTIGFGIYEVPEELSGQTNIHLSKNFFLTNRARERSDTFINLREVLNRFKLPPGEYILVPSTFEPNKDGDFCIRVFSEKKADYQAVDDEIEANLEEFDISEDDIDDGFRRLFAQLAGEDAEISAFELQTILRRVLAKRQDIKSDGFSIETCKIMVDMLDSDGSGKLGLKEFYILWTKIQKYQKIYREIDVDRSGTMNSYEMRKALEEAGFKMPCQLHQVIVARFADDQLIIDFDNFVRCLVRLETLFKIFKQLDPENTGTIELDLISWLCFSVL
T3 sequence (P04632 1-268 partner): T2 sequence (P04632 1-268 partner)
Test: Anti-calpain activity, calpain II (casein hydrolysis, Ross-Schatz method)
Assay type: biochemical
Conditions: not given

| SMILES | IC50 [nM] |
| --- | --- |
| CCCC[C@@H](C=O)NC(=O)[C@H](CC(C)C)NP(=S)(c1ccccc1)c1ccccc1 [Example 14, N-diphenylphosphonothioyl-L-leucyl-L-norleucinal] | 120 |

Same assay, conditions: Table 7 (Example 29); pH 7.5, 30° C., 30 minutes, casein; read-out: Inhibitory activity toward calpain II, IC50

| SMILES | IC50 [nM] |
| --- | --- |
| CCCC[C@@H](C=O)NC(=O)[C@H](CC(C)C)NC(=O)OCc1ccc(Cl)cc1 [Example 6, N-(p-chlorobenzyloxycarbonyl)-L-leucyl-L-norleucinal] | 130 |
| CCCC[C@@H](C=O)NC(=O)[C@H](CC(C)C)NC(=O)OCc1ccc(OC)cc1 [Example 7, N-(p-methoxybenzyloxycarbonyl)-L-leucyl-L-norleucinal] | 130 |
| CCCC[C@@H](C=O)NC(=O)[C@H](CC(C)C)NC(=O)OCc1ccc([N+](=O)[O-])cc1 [Example 8, N-(p-nitrobenzyloxycarbonyl)-L-leucyl-L-norleucinal] | 130 |
| CCCC[C@@H](C=O)NC(=O)[C@H](CC(C)C)NC(=O)OC(C)(C)C [Example 4, N-(t-butyloxycarbonyl)-L-leucyl-L-norleucinal] | 120 |
| CCCC[C@@H](C=O)NC(=O)[C@H](CC(C)C)NC(=O)CC(C)C [Example 3, N-isovaleryl-L-leucyl-L-norleucinal] | 130 |
| CCCC[C@@H](C=O)NC(=O)[C@H](CC(C)C)NC(=O)OCc1ccccc1Cl [Example 9, N-(o-chlorobenzyloxycarbonyl)-L-leucyl-L-norleucinal] | 130 |
